The target of data set [1] is PD-1/PD-L1 interaction (Homo sapiens, UniProt Q9NZQ7). The data set can be described thus: TR-FRET assay of PD-1/PD-L1 interaction inhibition. The class given is binding.
For data set [2], the system named is A375 cells. Kind of data set: Cytotoxicity evaluation by Real-Time Cell Analyzing. The conditions noted are these: 20 μmol/L of compound; RTCA; versus control group. The class given is cell-based.
Data set [3] deals with PD-1/PD-L1 interaction on H460 cells (Homo sapiens, UniProt Q9NZQ7). The data set is classed as cell-based.
PD-1/PD-L1 interaction on H460 cells, sequence (Q9NZQ7 19-290): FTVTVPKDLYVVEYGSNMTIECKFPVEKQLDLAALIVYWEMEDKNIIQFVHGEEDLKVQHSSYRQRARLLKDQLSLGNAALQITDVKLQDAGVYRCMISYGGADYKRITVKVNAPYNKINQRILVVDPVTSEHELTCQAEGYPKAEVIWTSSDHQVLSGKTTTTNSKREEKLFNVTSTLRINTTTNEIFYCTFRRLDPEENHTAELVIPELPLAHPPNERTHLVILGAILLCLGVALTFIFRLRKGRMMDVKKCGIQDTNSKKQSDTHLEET
Data set [4] concerns the target PD-1/PD-L1 interaction on MDA-MB-231 cells (Homo sapiens, UniProt Q9NZQ7). The data set is classed as cell-based. The settings on record: P39 0–200 nmol/L, 24 h; immunostaining.
Data set [5] relates to PD-1/PD-L1 interaction, H358 cells. The data set can be described thus: PD-1/PD-L1 blockade bioassay. The data set is classed as cell-based. The conditions noted are these: P39-treated H358 cells versus untreated cells; concentration-dependent.
Data set [6] has as its system H460 cells. The data set can be described thus: PBMCs-mediated tumor cell-killing assay. The data set is classed as cell-based, human. The conditions noted are these: P39 100 or 200 nmol/L, 24 h.
Data set [7] can be described thus: Acute toxicity test. The class given is in vivo, ICR mice.
Data set [8] relates to MC38 tumor cells. Kind of data set: In vivo antitumor activity, MC38 mouse model. Also on record: species or system C57BL/6 mice.
Data set [9] relates to Lewis lung carcinoma (LLC) cells overexpressing hPD-L1 (LLC-hPD-L1). Kind of data set: In vivo antitumor activity, humanized LLC-hPD-L1 mouse model. Also on record: species or system hPD-1-knockin C57BL/6 mice.
For data set [10] the test system is unchanged. The data set can be described thus: In vivo antitumor activity on Balb/c-nude mice. The conditions noted are these: P39 4, 10 and 25 mg/kg.
The subject of data set [11] is T cells in TILs. The data set can be described thus: Flow cytometry of tumor infiltrating lymphocytes, MC38 model. The data set is classed as in vivo, C57BL/6 mice. (Flow cytometry measures light scatter and fluorescence of single cells or particles in a stream.)
For data set [12], the system named is CD8, IFN-γ and GzmB expression. The data set can be described thus: Immunohistochemistry. The data set is classed as in vivo, mice. The conditions noted are these: IHC of tumor tissues; Fig. S8.

SMILES strings stand for the structures. A value given as a limit tells only on which side of the number the result lay.

What is called IC50 is the concentration at which inhibition is half-maximal. Lower therefore signals higher potency. One may read the LD50 as the dose expected to kill half of the subjects tested.

PD-1/PD-L1 interaction, sequence (Q9NZQ7 19-238 limits assumed): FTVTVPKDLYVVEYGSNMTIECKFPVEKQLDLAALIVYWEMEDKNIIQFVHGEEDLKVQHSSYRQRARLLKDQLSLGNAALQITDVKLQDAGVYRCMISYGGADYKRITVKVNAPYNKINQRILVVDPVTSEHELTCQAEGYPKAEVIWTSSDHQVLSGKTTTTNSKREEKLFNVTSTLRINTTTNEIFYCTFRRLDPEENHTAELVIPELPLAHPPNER
PD-1/PD-L1 interaction on MDA-MB-231 cells, sequence (Q9NZQ7 19-290): as the sequence (Q9NZQ7 19-290) above

In data set [1], `Cc1c(-c2ccccc2)cccc1N1C(=O)c2cc(CNCC(=O)O)c(OCc3cccc(C#N)c3)cc2C1=O` [P33] had an IC50 of 13.3 nM. Further, in [2], the “cytotoxicity, real-time growth of A375 cells” value (“cytotoxicity, real-time growth” below) is “essentially non-toxic to A375 cells”. Regarding `Cc1c(-c2ccccc2)cccc1N1C(=O)c2cc(CNCCO)c(OCc3ccccc3C#N)cc2C1=O` [P3], the IC50 in [1] was found to be 171 nM. For the same compound, in data set [2], the “cytotoxicity, real-time growth” value was “essentially non-toxic to A375 cells”. In the case of `Cc1c(-c2ccccc2)cccc1N1C(=O)c2cc(CN3CCCC[C@H]3C(=O)O)c(OCc3cccc(C#N)c3)cc2C1=O` [P11], the IC50 in [1] was 117 nM. In the case of `Cc1c(-c2ccccc2)cccc1N1C(=O)c2cc(CN[C@@H](CO)C(=O)O)c(OCc3cccc(C#N)c3)cc2C1=O` [P30], the IC50 in [1] turned out to be 14 nM. Moreover, the “cytotoxicity, real-time growth” value in [2] was “essentially non-toxic to A375 cells”. With `Cc1c(-c2ccccc2)cccc1N1C(=O)c2cc(CNCCN(C)C)c(OCc3cccc(C#N)c3)cc2C1=O` [P21], it took 189 nM to reach half-maximal inhibition in data set [1] (IC50). On the same count and under the same terms, the figure for `Cc1c(-c2ccccc2)cccc1N1C(=O)c2cc(CN[C@H](C(=O)OC(C)(C)C)C(C)O)c(OCc3cccc(C#N)c3)cc2C1=O` (some centres unmarked) [P38] is above 10000 nM. As for `Cc1c(-c2ccccc2)cccc1N1C(=O)c2cc(CN3CC(O)C3)c(OCc3cccc(C#N)c3)cc2C1=O` [P25], the IC50 in data set [1] amounted to 187 nM. Compound `Cc1c(-c2ccccc2)cccc1N1C(=O)c2cc(CN[C@@H](CO)C(=O)OC(C)(C)C)c(OCc3cccc(C#N)c3)cc2C1=O` [P29] displayed an IC50 in [1] of 607 nM. `Cc1c(-c2ccccc2)cccc1N1C(=O)c2cc(CN3CCOCC3)c(OCc3cccc(C#N)c3)cc2C1=O` [P24] gave an IC50 in data set [1] of 738 nM. In turn, `Cc1c(-c2ccccc2)cccc1N1C(=O)c2cc(CN[C@@H](Cc3ccccc3)C(=O)OC(C)(C)C)c(OCc3cccc(C#N)c3)cc2C1=O` [P40] yielded an IC50 in [1] of 1690 nM.

In [1], `Cc1c(-c2ccccc2)cccc1N1C(=O)c2cc(CN3CCC[C@H]3CO)c(OCc3cccc(C#N)c3)cc2C1=O` [P22] gave an IC50 of 251 nM. `Cc1c(-c2ccccc2)cccc1N1C(=O)c2cc(CNCCNC(=O)OC(C)(C)C)c(OCc3cccc(C#N)c3)cc2C1=O` [P20]: it took 395 nM to reach half-maximal inhibition in data set [1] (IC50).

As for `Cc1c(-c2ccccc2)cccc1N1C(=O)c2cc(CN3CCC[C@H]3C(N)=O)c(OCc3cccc(C#N)c3)cc2C1=O` [P26], the IC50 in data set [1] is 564 nM. In turn, `Cc1c(-c2ccccc2)cccc1N1C(=O)c2cc(CN(C)CCO)c(OCc3cccc(C#N)c3)cc2C1=O` [P19] yielded an IC50 in [1] of 150 nM. In turn, `Cc1c(-c2ccccc2)cccc1N1C(=O)c2cc(CN[C@H](C(=O)O)C(C)O)c(OCc3cccc(C#N)c3)cc2C1=O` (some centres unmarked) [P39] registered an IC50 in [1] of 8.9 nM. In addition, the “cytotoxicity, real-time growth” value in data set [2] is recorded as “essentially non-toxic to A375 cells”. The “inhibitory activity on PD-1 binding to tumor cells compared to BMS202” value in [3] (200 nmol/L, Fig. 4A and B) is “stronger inhibitory activity compared to the positive compound BMS202”. The “binding capacity of PD-1 to H460 cells” value in data set [3] (P39 0–200 nmol/L, 24 h, flow cytometry and immunostaining) is “significantly decreased in a dose-dependent manner”. Besides, in data set [4], the “binding capacity of PD-1 to MDA-MB-231 cells” value was “significantly decreased in a dose-dependent manner”. Moreover, in data set [5], the transcriptional-mediated bioluminescent signal entry is reported as “significant increase”. The “sensitivity of tumor cells to T cell killing (activated human PBMCs)” value in data set [6] is “greatly increased”. The compound further came in with an LD50 at 14 days in data set [7] (ICR, mouse, in vivo, po) above 5000 mg/kg. Further, the “mortality and body weight loss” value in [7] (oral single dose 5000 mg/kg, observed two weeks) is “no mortality and obvious body weight loss”. The “tumor volume growth inhibition” value worked out at 54.9% in data set [8] (10 mg/kg i.p. once daily, 4 weeks) and 68.3% in data set [8] (25 mg/kg i.p. once daily, 4 weeks). Further, the final tumor weight entry in [8] (10 and 25 mg/kg groups versus control group) was “significantly decreased”. Moreover, the “weight loss or death of mice during treatment” value in data set [8] (10 and 25 mg/kg i.p. once daily, 4 weeks) is “No weight loss or death of mice”. Moreover, in [9] (P39 25 mg/kg), the “tumor inhibitory effect compared with BMS202 (10 mg/kg)” value was “much better activity”. In [9] (high dose, 25 mg/kg, 12 days of administration), this compound displayed a tumor inhibition rate of 79.0%. Moreover, the “inhibition rate of tumor growth” value in [9] (low dose, 10 mg/kg) is 66.2%. In data set [10], the “ability to clear tumor cells in immunodeficient mice” value is given as “no ability to clear tumor cells”. Besides, the “population of CD4+ T cells in the tumor tissue” value in [11] (P39-treated mice versus control group, Fig. S6C) was “did not change compared to the control group”. Besides, in data set [11] (P39-treated mice, Fig. S6B and 6E), the “ratio of CD8+ to CD3+ T cells in the tumor” value is reported as “greatly increased”. For the same compound, in [12], the “expression of CD8, IFN-γ, and GzmB” value is reported as “increased expression”. `Cc1c(-c2ccccc2)cccc1N1C(=O)c2cc(CN(C)CC(=O)O)c(OCc3cccc(C#N)c3)cc2C1=O` [P35]: in data set [1], the IC50 amounted to 46.6 nM. `Cc1c(-c2ccccc2)cccc1N1C(=O)c2cc(CNCC(=O)OC(C)(C)C)c(OCc3cccc(C#N)c3)cc2C1=O` [P32]: the IC50 in [1] worked out at 1160 nM. `Cc1c(-c2ccccc2)cccc1N1C(=O)c2cc(CNCCO)c(OCc3ccc(C(C)C)cc3)cc2C1=O` [P6] showed an IC50 in data set [1] of 921 nM. With `Cc1c(-c2ccccc2)cccc1N1C(=O)c2cc(CNC3CCOCC3)c(OCc3cccc(C#N)c3)cc2C1=O` [P7], inhibition in [1] was half-maximal at 45.6 nM (IC50). `Cc1c(-c2ccccc2)cccc1N1C(=O)c2cc(CNCCO)c(OCc3cccc(C#N)c3)cc2C1=O` [P1]: the IC50 in data set [1] was 45.4 nM. Besides, the “cytotoxicity, real-time growth” value in [2] is recorded as “essentially non-toxic to A375 cells”. For the compound `Cc1c(-c2ccccc2)cccc1N1C(=O)c2cc(CN3CCC[C@H]3C(=O)O)c(OCc3cccc(C#N)c3)cc2C1=O` [P8], in [1], inhibition was half-maximal at 52.1 nM (IC50). In addition, the “cytotoxicity, real-time growth” value in [2] is listed as “essentially non-toxic to A375 cells”. The like results for `N#Cc1cccc(COc2cc3c(cc2CNC2CCOCC2)C(=O)N(c2cccc(-c4ccccc4)c2F)C3=O)c1` [P15] were, in that order, 58.7 nM and “essentially non-toxic to A375 cells”. On to `Cc1c(-c2ccccc2)cccc1N1C(=O)c2ccc(OCc3cccc(C#N)c3)c(CNC3CCOCC3)c2C1=O` [P9], for which half-maximal inhibition in data set [1] (IC50) was put at 1140 nM. As to `Cc1c(-c2ccccc2)cccc1N1C(=O)c2cc(CN3CC(C(=O)O)C3)c(OCc3cccc(C#N)c3)cc2C1=O` [P27], the IC50 in [1] amounted to 42.4 nM. `N#Cc1cccc(COc2cc3c(cc2CNC2CCOCC2)C(=O)N(c2cccc(-c4ccccc4)c2Cl)C3=O)c1` [P13] registered an IC50 in data set [1] of 39.3 nM. For the compound `Cc1c(-c2ccccc2)cccc1N1C(=O)c2cc(CNCCO)c(OCc3ccc(C#N)cc3)cc2C1=O` [P4], in [1], half-maximal inhibition (IC50) was put at 153 nM. The “cytotoxicity, real-time growth” value in [2] was “essentially non-toxic to A375 cells”.

Turning to `Cc1c(-c2ccccc2)cccc1N1C(=O)c2cc(CN[C@@H](Cc3ccccc3)C(=O)O)c(OCc3cccc(C#N)c3)cc2C1=O` [P41], inhibition in [1] was half-maximal at 527 nM (IC50). In data set [1], `Cc1c(-c2ccccc2)cccc1N1C(=O)c2cc(CNCCO)c(OCc3ccccc3)cc2C1=O` [P5] came in with an IC50 of 216 nM. Compound `CC(=O)NCCNCc1cc2c(cc1OCc1cccc(C#N)c1)C(=O)N(c1cccc(-c3ccccc3)c1C)C2=O` [P18] registered an IC50 in data set [1] of 79.1 nM. Regarding `N#Cc1cccc(COc2cc3c(cc2CN2CCC[C@H]2C(=O)O)C(=O)N(c2cccc(-c4ccccc4)c2Cl)C3=O)c1` [P14], in data set [1], the IC50 was found to be 22.1 nM. In data set [1], `Cc1c(-c2ccccc2)cccc1N1C(=O)c2cc(CN(C)CC(=O)OC(C)(C)C)c(OCc3cccc(C#N)c3)cc2C1=O` [P34] returned an IC50 above 10000 nM. `COC(=O)CNCc1cc2c(cc1OCc1cccc(C#N)c1)C(=O)N(c1cccc(-c3ccccc3)c1C)C2=O` [P31] had an IC50 in data set [1] of 836 nM. The compound `Cc1c(-c2ccccc2)cccc1N1C(=O)c2cc(CN[C@@H](C)C(=O)OC(C)(C)C)c(OCc3cccc(C#N)c3)cc2C1=O` [P36] registered a half-inhibitory concentration (IC50) in data set [1] of 1670 nM. In the case of `N#Cc1cccc(COc2cc3c(cc2CN2CCC[C@H]2C(=O)O)C(=O)N(c2cccc(-c4ccccc4)c2F)C3=O)c1` [P16], the midpoint of inhibition in data set [1], the IC50, lay at 31.6 nM.

Consider `Cc1c(-c2ccccc2)cccc1N1C(=O)c2cc(CN3CC[C@@H](O)C3)c(OCc3cccc(C#N)c3)cc2C1=O` [P23], for which the IC50 in data set [1] came to 216 nM. For `Cc1c(-c2ccccc2)cccc1N1C(=O)c2ccc(OCc3cccc(C#N)c3)c(CN3CCC[C@H]3C(=O)O)c2C1=O` [P10], in [1], the IC50 worked out at 4380 nM. Compound `Cc1c(-c2ccccc2)cccc1N1C(=O)c2cc(CN[C@@H](C)C(=O)O)c(OCc3cccc(C#N)c3)cc2C1=O` [P37] showed an IC50 in [1] of 11.6 nM. Further, in [2], the “cytotoxicity, real-time growth” value was “essentially non-toxic to A375 cells”.

Take `N#Cc1cccc(COc2cc3c(cc2CN2CCCC[C@H]2C(=O)O)C(=O)N(c2cccc(-c4ccccc4)c2C#N)C3=O)c1` [P12]: the IC50 in [1] came out at 100 nM.
